# Values of other authors in patent publication US4756118A, “Method and apparatus for the destruction of imported fire ants of the genus Solenopsis” (priority 1986, dated 1988).
# What was measured:
# [1] = system: Imported Fire Ant; settings: poison bait
# [2] = relative to pyrethrum
smiles,measurement,setting,value
CC1(C)CNC(=NN=C(C=Cc2ccc(C(F)(F)F)cc2)C=Cc2ccc(C(F)(F)F)cc2)NC1 [Amdro],effectiveness in Imported Fire Ant control,[1],very limited in its effectiveness
"ClC1(Cl)C2(Cl)C3(Cl)C4(Cl)C(Cl)(Cl)C5(Cl)C3(Cl)C1(Cl)C5(Cl)C24Cl (centres unmarked) [Mirex, dodecachloroocta-hydro-1,3,4-metheno-2H-cyclobuta(cd)pentalene]",Acute Oral LD50,,306 mg/kg
same,effectiveness in Imported Fire Ant control,[1],most effective chemical control agent
"CC(C)=CC1C(C(=O)OCc2coc(Cc3ccccc3)c2)C1(C)C (centres unmarked) [Resmethrin, [5-(phenylmethyl)-3-furanyl]methyl 2,2-dimethyl-3-(2-methyl-1-propenyl)cyclopropanecarboxylate]",Acute Oral LD50,,"4,420 mg./kg."
same,times more effective than pyrethrum,[2],~20 times
